These results are taken from patent publication US20050043333A1, “Quinazolinone derivative” (Fujisawa Pharmaceutical Co., Ltd, priority 2001, published 2005).

The target in this assay is recombinant human PARP (Homo sapiens, UniProt P09874). Kind of assay: PARP Inhibitory Activity (In Vitro Assay). Format: biochemical. The settings on record: 32P-NAD, 0.05 mM NAD, activated DNA, 15 minutes at room temperature. On the procedure:
Incubation was for 15 minutes at a room temperature and the reaction was stopped by the addition of 200 μl of ice-cold 20% trichloroacetic acid followed by rapid filtration through GF/B filters. The filters were treated with scintillation fluid and acid-insoluble counts were measured for quantification of unit activity.

Broadly, the IC50 is the concentration that gives 50% inhibition.

recombinant human PARP, sequence (P09874 whole entry): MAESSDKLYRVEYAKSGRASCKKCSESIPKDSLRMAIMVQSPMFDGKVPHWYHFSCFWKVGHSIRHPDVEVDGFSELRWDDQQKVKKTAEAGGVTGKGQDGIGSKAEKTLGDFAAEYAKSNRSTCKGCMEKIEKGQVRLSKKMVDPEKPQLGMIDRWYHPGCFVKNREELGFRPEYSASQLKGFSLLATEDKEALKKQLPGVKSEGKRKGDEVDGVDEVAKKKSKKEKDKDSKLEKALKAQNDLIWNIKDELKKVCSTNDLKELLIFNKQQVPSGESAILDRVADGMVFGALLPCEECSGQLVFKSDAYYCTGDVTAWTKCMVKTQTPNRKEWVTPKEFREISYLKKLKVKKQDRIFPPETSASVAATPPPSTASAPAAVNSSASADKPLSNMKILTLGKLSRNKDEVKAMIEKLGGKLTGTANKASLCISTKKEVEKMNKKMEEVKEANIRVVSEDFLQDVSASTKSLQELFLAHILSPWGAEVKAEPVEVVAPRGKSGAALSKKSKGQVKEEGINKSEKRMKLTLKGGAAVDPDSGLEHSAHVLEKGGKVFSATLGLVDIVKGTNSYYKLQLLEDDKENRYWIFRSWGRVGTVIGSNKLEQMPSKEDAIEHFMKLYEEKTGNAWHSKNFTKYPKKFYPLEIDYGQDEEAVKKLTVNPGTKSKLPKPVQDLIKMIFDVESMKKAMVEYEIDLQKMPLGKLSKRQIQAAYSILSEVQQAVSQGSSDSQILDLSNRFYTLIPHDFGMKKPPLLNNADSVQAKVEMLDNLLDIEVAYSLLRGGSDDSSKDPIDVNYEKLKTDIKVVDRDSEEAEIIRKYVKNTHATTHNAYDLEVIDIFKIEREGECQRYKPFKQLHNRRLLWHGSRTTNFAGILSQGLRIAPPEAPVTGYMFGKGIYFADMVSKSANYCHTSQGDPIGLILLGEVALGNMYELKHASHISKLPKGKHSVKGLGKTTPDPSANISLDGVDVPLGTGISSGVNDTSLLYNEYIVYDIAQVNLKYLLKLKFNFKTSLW

For `O=c1[nH]c(C2=CC(N3CC=C(c4ccccc4)CC3)CC2)nc2ccccc12` (stereo not shown) [Compound A, 2-[3-(4-phenyl-3,6-dihydro-1(2H)-pyridinyl)-1-cyclopenten-1-y 1]-4(3H)-quinazolinone], the IC50 is under 500 nM.
